Data reported in patent publication US20260200951A1, “NOVEL BORATE COMPOUND SOLUBLE IN ALIPHATIC HYDROCARBON SOLVENT” (AGC INC., priority 2023, published 2026).

Tests used:
[1] = Evaluation of solubility (visual appearance of stored solutions in aliphatic hydrocarbon solvents); type: physicochemical; details: for solubility room temperature, 3 days: stored at room temperature for 3 days
Description: The symbols used to evaluate solubility in the Tables mean the following: • ◯: homogeneous transparent solution state • Δ: cloudy state • x: two-phase separation or crystallization

[2] = Evaluation of polymerization performance (ethylene/1-octene solution polymerization with CGC catalyst, compound as cocatalyst); details: CGC 3 μmol, catalyst:cocatalyst=1:1, TIBA 3000 μmol, 40 ml solvent (MCH), 1-octene 1 mL, ethylene 8 atm, 50° C., 6 min
Protocol: A general polymerization method using the compound of the present invention (compound (1-2)) as a cocatalyst is shown below.
Into 100 mL autoclave in a glove box were added 1-octene, triisobutylaluminum (TIBA, 1.00 M hexane solution) and a solvent (methylcyclohexane (MCH)) to prepare a comonomer solution. A polymerization catalyst (dimethylsilylene(tert-butylamide)-(tetramethylcyclopentadienyl)-titanium (IV)-dichloride (CGC)), triisobutylaluminum (1.00 M hexane solution), and a solvent were added to prepare a catalyst solution at a predetermined concentration, and the solution was transferred to a Schlenk tube. Compound (1-2) (cocatalyst) was dissolved in a solvent, and a cocatalyst solution at a predetermined concentration was prepared and transferred to the Schlenk tube. The comonomer solution, the catalyst solution, and the cocatalyst solution were mixed, and prepared such that the total amount of the solvent and the total amount of triisobutylaluminum would be constant. The inside of the autoclave was purged with ethylene gas, the catalyst solution and the cocatalyst solution were successively added to the autoclave, and the ethylene gas pressure was immediately adjusted to a predetermined pressure, and the mixture was stirred at 50° C. for 6 min. […]

[3] = 0.6 wt % (≈3 mM) borate compound/n-hexane solution, visual observation
[4] = 50 wt % borate compound/methylcyclohexane solution, visual observation
[5] = 50 wt % borate compound/methylcyclohexane solution, stored at −15° C. for 3 days, visual observation

solubility at 3 days ([1]; organic solvent or mixture, 0.6 wt % (≈3 mM) borate compound/n-hexane solution, stored at −15° C. for 3 days, visual observation) [µM]	Structure (SMILES)	solubility room temperature, 3 days [1, 3]	solubility room temperature, 3 days [1, 4]	solubility −15° C., 3 days [1, 5]	solubility −15° C., 3 days ([1]; 0.6 wt % (≈3 mM) borate compound/n-hexane solution, stored at −15° C. for 3 days, visual observation)	solubility in aliphatic hydrocarbon solvents at low temperatures, in words ([1]; compared to Comparative Examples 1 to 5, summary of Tables 1 and 2)	ethylene-octene copolymer obtained [2] [mg]
< 3000	CCCCCCCCCCCCCCCCN(CCCCCCCCCCCCCCCC)c1ccccc1 [Comparative Example 1, N,N-Dihexadecylanilinium tetrakis(pentafluorophenyl) borate]	∘	∘	∘			
	CCCCCCCCCCCCCCCCCC[NH+](CCCCCCCCCCCCCCCCCC)c1ccc(CCCC)cc1.Fc1c(F)c(F)c([B-](c2c(F)c(F)c(F)c(F)c2F)(c2c(F)c(F)c(F)c(F)c2F)c2c(F)c(F)c(F)c(F)c2F)c(F)c1F [Example 2, N,N-Dioctadecyl-4-butylanilinium tetrakis(pentafluorophenyl) borate]	∘	∘	∘	∘	remarkably high solubility	47.3
